Tests used:
[1] = system: Erysiphe graminis f.sp. horde; assay: In vivo test on Erysiphe graminis (barley mildew), preventive spray; conditions: Blumeria graminis, 168 h, barley young plants, evaluated 7 days after inoculation, good (at least 70%) to total protection
Experimental: In Vivo Test on Erysiphe Graminis (Barley Mildew) [table] To produce a suitable preparation of active compound, 1 part by weight of active compound or active compound combination is mixed with the stated amounts of solvent and emulsifier, and the concentrate is diluted with water to the desired concentration. Young plants are sprayed with the preparation of active compound or active compound combination at the stated rate of application. After the spray coating has dried on, the plants are dusted with spores of Erysiphe graminis f.sp. horde. The plants are placed in a greenhouse at a temperature of approximately 20° C. and a relative atmospheric humidity of approximately 80% to promote the development of mildew pustules. The test is evaluated 7 days after the inoculation. Under these conditions, good (at least 70%) to total protection is observed at a dose of 1000 ppm with the following compounds: 104, 160, 177, 178, 186, 192, 194, 203, 204, 205, 207, 210, 212, 213 and 435.

[2] = logP by HPLC on reversed-phase column (C 18), EEC Directive 79/B31 Annex V.A8, methods A and B; type: physicochemical; conditions: reversed-phase HPLC column (C 18), HPLC reversed-phase C 18, method A: 43° C., 0.1% aqueous phosphoric acid, acetonitrile, linear gradient 10% to 90% acetonitrile
Experimental: Calibration was carried out using unbranched alkan-2-ones (having 3 to 16 carbon atoms) with known logP values (determination of the logP values by the retention times using linear interpolation between two successive alkanones).

Alternaria solani = assay: In vivo test on Alternaria solani (tomato leaf spot), preventive spray; conditions: 168 h, tomato young plants, evaluated 7 days after inoculation, good (at least 70%) to total protection
Experimental: In Vivo Test on Alternaria Solani (Tomato Leaf Spot) [table] To produce a suitable preparation of active compound, 1 part by weight of active compound is mixed with the stated amounts of solvent and emulsifier, and the concentrate is diluted with water to the desired concentration. Young plants are sprayed with the preparation of active compound at the stated rate of application. After the spray coating has dried on, the plants are inoculated with an aqueous spore suspension of Alternaria solani. The plants remain for one day in an incubation cabinet at approximately 20° C. and a relative atmospheric humidity of 100%. Then the plants are placed in an incubation cabinet at approximately 20° C. and a relative atmospheric humidity of 96%. The test is evaluated 7 days after the inoculation. Under these conditions, good (at least 70%) to total protection is observed at a dose of 500 ppm with the following compounds 110, 143, 160, 175, 176, 178, 179, 180, 186, 187, 189, 192, 196, 198, 203, 204, 205, 209, 210, 212, 214, 215 and 652.

Podosphaera leucotricha = assay: In vivo test on Podosphaera leucotricha (apple mildew), preventive spray; conditions: 240 h, apple young plants, evaluated 10 days after inoculation, good (at least 70%) to total protection
Experimental: In Vivo Test on Podosphaera leucotncha (Apple Mildew) [table] To produce a suitable preparation of active compound, 1 part by weight of active compound is mixed with the stated amounts of solvent and emulsifier, and the concentrate is diluted with water to the desired concentration. Young plants are sprayed with the preparation of active compound at the stated rate of application. After the spray coating has dried on, the plants are inoculated with an aqueous spore suspension of the causal agent of apple mildew (Podosphaera leucobicha). The plants are then placed in a greenhouse at approximately 23° C. and a relative atmospheric humidity of approximately 70%. The test is evaluated 10 days after the inoculation. Under these conditions, good (at least 70%) to total protection is observed at a dose of 100 ppm with the following compounds: 104, 160, 176, 177, 180, 186, 187, 188, 192, 194, 196, 198, 203, 204, 205, 207, 209, 210, 211, 212, 213, 218 and 446.

Pyrenophora teres = assay: In vivo test on Pyrenophora teres (barley net blotch); conditions: 288 h, barley plants (Express variety), grading 12 days after contamination, good (at least 70%) or total protection
Experimental: In Vivo Test on Pyrenophore teres (Barley Net Blotch)
The active ingredients tested are prepared by homogenisation in a mixture of acetone/tween/DMSO, then diluted with water to obtain the desired active material concentration. Barley plants (Express variety) in starter cups, sown on a 50/50 peat soil-pozzolana substrate and grown at 12° C., are treated at the 1-leaf stage (10 cm tall) by spraying with the active ingredient prepared as described above. Plants, used as controls, are treated with the mixture of acetone/tween/DMSO/water not containing the active material.
After 24 hours, the plants are contaminated by spraying them with an aqueous suspension of Pyrenophora teres spores (12,000 spores per ml). The spores are collected from a 12-day-old culture. The contaminated barley plants are incubated for 24 hours at about 20° C. and at 100% relative humidity, and then for 12 days at 80% relative humidity.

| Structure (SMILES) | pest or weed control at 1000 ppm [1] | chromatographic logP [2] | pest or weed control at 500 ppm (Alternaria solani) | pest or weed control at 100 ppm (Podosphaera leucotricha) | pest or weed control at 500 ppm (Pyrenophora teres) |
| --- | --- | --- | --- | --- | --- |
| Cc1nn(C)c(F)c1C(=O)N(C1CC1)S(=O)(=O)c1cccc(O)c1O [Compound 210] | ≥ 70% | 2.77 | ≥ 70% | ≥ 70% | ≥ 70% |
| Cc1nn(C)c(F)c1C(=O)N(C1CC1)S(=O)(=O)c1ccccc1F [Compound 205] | ≥ 70% | 2.25 | ≥ 70% | ≥ 70% |  |
| Cc1nn(C)c(F)c1C(=O)N(C1CC1)S(=O)(=O)c1ccccc1Br [Compound 204] | ≥ 70% | 2.37 | ≥ 70% | ≥ 70% |  |
| Cc1nn(C)c(F)c1C(=O)N(C1CC1)S(=O)(=O)c1ccc(O)c(O)c1O [Compound 212] | ≥ 70% | 3.35 | ≥ 70% | ≥ 70% |  |

From patent publication US7932283B2, “Fungicide N-cyclopropyl-sulfonylamide derivatives” (Bayer Cropscience AG, priority 2006, dated 2011)
